Measured values taken from ChEMBL document CHEMBL1201862, “PubChem BioAssay data set” (2004).
The source made the active and inactive calls.

Columns and labels:
[1] = molecular target: Tyrosine-protein phosphatase non-receptor type 12 (Homo sapiens, UniProt Q05209); assay: SAR Selectivity Analysis of small molecule inhibitors of PEST using pCAP in a fluorescence assay. [Related pubchem assays (depositor defined):AID1779, AID1784, AID2135]; type: functional
[2] = molecular target: Phospholipase A2 (Homo sapiens, UniProt P04054); type: functional;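 note: confirmatory dose-response counterscreen on phospholipase A2, testing hits that came from an ultra-high-throughput screen for ATG4B inhibitors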
Sequence of Phospholipase A2 (P04054 whole entry): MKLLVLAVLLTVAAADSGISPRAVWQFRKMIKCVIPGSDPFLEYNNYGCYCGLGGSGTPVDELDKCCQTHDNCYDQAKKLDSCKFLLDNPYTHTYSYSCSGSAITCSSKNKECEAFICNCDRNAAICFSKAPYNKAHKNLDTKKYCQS

[3] = molecular target: G-protein coupled receptor 35 (Homo sapiens, UniProt Q9HC97); assay: SAR Analysis for the identification of Selective Antagonists of ERK1/2 Activity in GPR35-Overexpressing U2OS Cells. [Related pubchem assays: 2079, 2058 ]; type: functional, cell-based
Sequence of G-protein coupled receptor 35 (Q9HC97 whole entry, the tested form may be a part): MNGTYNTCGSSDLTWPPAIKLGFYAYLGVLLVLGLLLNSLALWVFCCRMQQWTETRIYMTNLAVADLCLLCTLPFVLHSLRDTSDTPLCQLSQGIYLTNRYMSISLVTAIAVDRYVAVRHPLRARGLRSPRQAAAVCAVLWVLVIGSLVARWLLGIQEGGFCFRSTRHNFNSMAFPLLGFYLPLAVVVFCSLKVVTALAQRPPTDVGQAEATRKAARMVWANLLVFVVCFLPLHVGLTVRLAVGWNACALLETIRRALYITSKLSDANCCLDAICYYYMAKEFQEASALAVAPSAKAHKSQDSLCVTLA

[4] = CCR5-tropic HIV-1 fusion blockers – cell-based, CCR5-tropic Env, dose response (AID 2279); type: functional
[5] = molecular target: T1, Tyrosine-protein phosphatase non-receptor type 22 (Homo sapiens, UniProt Q9Y2R2); assay: SAR LYP1 Fluorescent Assay using OMFP substrate for In Vitro dose response studies - Set 3. [Related pubchem assays (depositor defined):AID1779, AID1784, AID2140, AID2686]; type: functional
T1 sequence (Q9Y2R2 whole entry): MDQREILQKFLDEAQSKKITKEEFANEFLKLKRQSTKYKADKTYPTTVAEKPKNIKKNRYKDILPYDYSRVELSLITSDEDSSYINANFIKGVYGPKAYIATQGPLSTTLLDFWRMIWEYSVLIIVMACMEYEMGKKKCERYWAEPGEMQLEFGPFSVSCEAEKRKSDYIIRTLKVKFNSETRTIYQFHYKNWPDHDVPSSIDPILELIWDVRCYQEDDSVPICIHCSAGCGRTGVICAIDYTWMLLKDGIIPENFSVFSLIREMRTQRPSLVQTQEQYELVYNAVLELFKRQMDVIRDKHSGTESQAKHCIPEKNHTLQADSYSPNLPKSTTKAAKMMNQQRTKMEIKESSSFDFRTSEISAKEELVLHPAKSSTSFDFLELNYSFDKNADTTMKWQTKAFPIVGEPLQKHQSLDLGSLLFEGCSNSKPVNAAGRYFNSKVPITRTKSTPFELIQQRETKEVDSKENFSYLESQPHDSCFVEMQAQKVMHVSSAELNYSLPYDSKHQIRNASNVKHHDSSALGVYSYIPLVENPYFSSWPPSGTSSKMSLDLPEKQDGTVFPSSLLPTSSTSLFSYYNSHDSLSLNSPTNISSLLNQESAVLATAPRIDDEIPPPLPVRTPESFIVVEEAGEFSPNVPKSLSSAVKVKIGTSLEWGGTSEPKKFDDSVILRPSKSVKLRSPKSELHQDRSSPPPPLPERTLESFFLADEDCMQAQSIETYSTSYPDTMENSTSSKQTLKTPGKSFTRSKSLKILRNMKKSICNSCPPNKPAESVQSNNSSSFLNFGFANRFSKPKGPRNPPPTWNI

[6] = molecular target: Tyrosine-protein phosphatase non-receptor type 7 (Homo sapiens, UniProt P35236); assay: inhibition of hematopoietic tyrosine phosphatase HePTP – biochemical, set 2, SAR follow-up (AID 449736); type: functional
Sequence of Tyrosine-protein phosphatase non-receptor type 7 (P35236 whole entry): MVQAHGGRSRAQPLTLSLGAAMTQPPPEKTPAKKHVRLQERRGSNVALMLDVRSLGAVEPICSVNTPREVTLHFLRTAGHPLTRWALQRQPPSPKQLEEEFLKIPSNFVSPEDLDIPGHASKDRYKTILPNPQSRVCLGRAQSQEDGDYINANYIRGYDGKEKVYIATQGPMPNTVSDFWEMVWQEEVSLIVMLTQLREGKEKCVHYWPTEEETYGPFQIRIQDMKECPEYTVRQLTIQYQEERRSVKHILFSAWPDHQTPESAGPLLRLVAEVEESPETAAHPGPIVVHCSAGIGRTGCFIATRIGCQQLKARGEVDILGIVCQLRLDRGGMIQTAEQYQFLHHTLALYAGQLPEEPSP

[7] = molecular target: T1, Tyrosine-protein phosphatase non-receptor type 22; assay: inhibition of lymphoid tyrosine phosphatase LYP – biochemical, pCAP fluorogenic substrate, fluorescence, set 3, SAR follow-up (AID 449727); type: functional
[8] = tested on: Streptococcus sp. 'group A'; assay: Streptococcus pyogenes SK(-)GAS viability under kanamycin – luminescence, BacTiterGlo, confirmation, counter-screen for streptokinase expression inhibitor project, dose response (AID 1900); type: functional, organism-based
[9] = molecular target: T2, Cysteine protease ATG4B (Homo sapiens, UniProt Q9Y4P1); type: functional;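 note: Fluorescence-based dose-response confirmation assay measuring inhibition of ATG4B activity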
T2 sequence (Q9Y4P1 whole entry): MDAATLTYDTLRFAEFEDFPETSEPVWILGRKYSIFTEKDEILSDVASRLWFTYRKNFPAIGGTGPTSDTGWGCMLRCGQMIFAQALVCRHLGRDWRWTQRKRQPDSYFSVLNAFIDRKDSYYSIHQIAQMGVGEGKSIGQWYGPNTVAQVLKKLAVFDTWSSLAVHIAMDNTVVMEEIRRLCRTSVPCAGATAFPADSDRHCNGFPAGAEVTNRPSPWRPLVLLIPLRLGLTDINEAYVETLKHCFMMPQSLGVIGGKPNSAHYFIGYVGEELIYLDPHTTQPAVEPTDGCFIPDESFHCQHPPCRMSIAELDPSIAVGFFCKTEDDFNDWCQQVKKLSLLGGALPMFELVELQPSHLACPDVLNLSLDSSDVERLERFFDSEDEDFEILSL

[10] = molecular target: G-protein coupled receptor 55 (Homo sapiens, UniProt Q9Y2T6); assay: blockers of GPR55 signalling, imaged – imaging, image-based, counter-screen for GPR35 antagonist project, SAR follow-up (AID 2397); type: functional
Sequence of G-protein coupled receptor 55 (Q9Y2T6 whole entry): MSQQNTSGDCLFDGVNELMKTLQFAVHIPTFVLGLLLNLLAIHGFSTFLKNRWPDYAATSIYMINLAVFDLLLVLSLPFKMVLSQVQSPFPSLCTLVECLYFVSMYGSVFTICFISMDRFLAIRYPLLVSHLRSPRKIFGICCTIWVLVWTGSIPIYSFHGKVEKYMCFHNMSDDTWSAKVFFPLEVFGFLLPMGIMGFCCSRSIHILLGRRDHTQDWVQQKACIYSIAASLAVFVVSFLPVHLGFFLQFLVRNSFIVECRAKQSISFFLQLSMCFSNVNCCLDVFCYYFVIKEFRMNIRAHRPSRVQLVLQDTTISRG

[11] = tested on: Streptococcus; assay: GAS UMAA2166 growth inhibition – luminescence, BacTiterGlo, counter-screen for streptokinase expression inhibitor project, dose response (AID 1915); type: functional, organism-based;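 note: potency for reduction of bacterial viability or growth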
[12] = molecular target: SUMO E1/E2 (Homo sapiens, UniProt P63279+Q9UBE0+Q9UBT2); assay: SAR analysis of SUMOylation using HTRF in an in-Vitro dose response assay. [Related pubchem assays (depositor defined):AID2006, AID2011, AID2018, AID2069, AID2658]; type: functional
Sequence of SUMO E1/E2 (Q9UBE0 whole entry): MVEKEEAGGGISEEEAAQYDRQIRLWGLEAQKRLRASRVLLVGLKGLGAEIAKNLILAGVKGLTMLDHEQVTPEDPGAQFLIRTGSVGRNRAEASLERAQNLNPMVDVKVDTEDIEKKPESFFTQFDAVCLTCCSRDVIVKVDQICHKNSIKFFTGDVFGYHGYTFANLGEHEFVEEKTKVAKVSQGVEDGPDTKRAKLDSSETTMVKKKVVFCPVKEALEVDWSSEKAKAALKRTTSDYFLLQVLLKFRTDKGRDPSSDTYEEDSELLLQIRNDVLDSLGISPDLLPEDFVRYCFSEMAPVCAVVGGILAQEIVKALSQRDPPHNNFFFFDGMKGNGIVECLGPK
Sequence of SUMO E1/E2 (Q9UBT2 whole entry): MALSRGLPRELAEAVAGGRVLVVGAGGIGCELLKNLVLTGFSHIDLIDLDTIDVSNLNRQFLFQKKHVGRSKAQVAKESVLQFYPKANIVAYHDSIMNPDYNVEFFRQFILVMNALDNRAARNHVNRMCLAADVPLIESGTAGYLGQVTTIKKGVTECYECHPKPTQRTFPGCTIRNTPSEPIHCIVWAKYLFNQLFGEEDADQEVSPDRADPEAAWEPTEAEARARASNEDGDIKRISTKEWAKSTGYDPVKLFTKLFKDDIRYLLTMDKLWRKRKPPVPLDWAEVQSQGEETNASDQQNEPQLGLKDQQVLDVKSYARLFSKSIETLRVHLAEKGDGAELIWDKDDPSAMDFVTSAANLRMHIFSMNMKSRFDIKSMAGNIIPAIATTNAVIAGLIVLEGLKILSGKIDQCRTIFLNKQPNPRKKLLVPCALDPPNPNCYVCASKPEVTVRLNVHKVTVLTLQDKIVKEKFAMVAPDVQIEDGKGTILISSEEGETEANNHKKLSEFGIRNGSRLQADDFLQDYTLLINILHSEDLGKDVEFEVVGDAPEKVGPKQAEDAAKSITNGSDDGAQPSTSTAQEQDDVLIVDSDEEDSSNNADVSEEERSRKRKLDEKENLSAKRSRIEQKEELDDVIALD
Sequence of SUMO E1/E2 (P63279 whole entry): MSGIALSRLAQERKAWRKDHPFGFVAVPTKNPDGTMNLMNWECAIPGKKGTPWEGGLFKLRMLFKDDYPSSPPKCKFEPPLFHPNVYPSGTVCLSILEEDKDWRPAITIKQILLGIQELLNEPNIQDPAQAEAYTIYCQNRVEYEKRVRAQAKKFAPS

Sequence of Tyrosine-protein phosphatase non-receptor type 12 (Q05209 whole entry): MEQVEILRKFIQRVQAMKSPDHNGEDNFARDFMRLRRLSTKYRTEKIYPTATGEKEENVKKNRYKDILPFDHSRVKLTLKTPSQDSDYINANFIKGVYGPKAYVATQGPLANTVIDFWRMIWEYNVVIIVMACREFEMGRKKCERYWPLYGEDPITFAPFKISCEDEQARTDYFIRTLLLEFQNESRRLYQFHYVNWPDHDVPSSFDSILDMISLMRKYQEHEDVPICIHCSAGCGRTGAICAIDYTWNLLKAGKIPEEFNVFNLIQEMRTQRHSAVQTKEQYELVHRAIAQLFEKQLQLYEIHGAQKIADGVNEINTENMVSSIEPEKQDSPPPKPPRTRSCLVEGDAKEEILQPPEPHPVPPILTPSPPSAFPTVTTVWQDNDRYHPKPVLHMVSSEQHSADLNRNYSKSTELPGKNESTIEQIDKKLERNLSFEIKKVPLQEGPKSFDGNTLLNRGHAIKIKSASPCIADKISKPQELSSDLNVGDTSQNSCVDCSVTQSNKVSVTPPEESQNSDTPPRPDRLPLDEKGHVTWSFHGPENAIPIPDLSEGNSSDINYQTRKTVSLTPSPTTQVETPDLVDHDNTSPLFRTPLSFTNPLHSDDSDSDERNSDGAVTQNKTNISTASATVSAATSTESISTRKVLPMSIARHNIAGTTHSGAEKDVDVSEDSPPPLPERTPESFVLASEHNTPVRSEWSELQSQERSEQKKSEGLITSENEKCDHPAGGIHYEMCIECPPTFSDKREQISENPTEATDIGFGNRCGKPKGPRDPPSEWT

| SMILES | IC50 [1] | IC50 [2] | IC50 [3] | IC50 [4] | IC50 [5] | IC50 [6] | IC50 [7] | EC50 [8] | IC50 [9] | IC50 [10] | EC50 [11] | IC50 [12] |
| --- | --- | --- | --- | --- | --- | --- | --- | --- | --- | --- | --- | --- |
| CC(/C=C1\SC(=S)N(CCCC(=O)Nc2ccc(C(=O)O)cc2)C1=O)=C\c1ccccc1 | 8.24 µM (active) | 5.33 µM (active) | 1.59 µM (active) | 38.9 µM (active) | 34.8 µM (active) | 1.28 µM (active) | 47.1 µM (active) | 0.274 µM (active) | 6.85 µM (active) | 17.9 µM (inactive) | 1.04 µM (active) | – |
| S=c1[nH]nc(-c2cc(-c3ccccc3)[nH]n2)n1N=Cc1cccc(Cl)c1 | – | – | – | – | – | – | – | – | – | – | – | 12.5 µM (active) |
